Results reported in PMC6440969, “Functional and structural similarities of D7 proteins in the independently-evolved salivary secretions of sand flies and mosquitoes” (Scientific Reports, 2019).
Like-named read-outs stand apart in the source and are kept apart here.

Assays:
[1] = target: T1, P. papatasi D7 protein AGE83092 (Phlebotomus papatasi, UniProt M1JMQ7); assay: biochemical; assay type: binding
T1 construct: made in house; host or cells: E. coli BL21 (DE3) pLysS
Experimental: (§1) For cysteinyl leukotriene experiments, the calorimeter cell was filled with P. papatasi D7 protein AGE83092 (A–C) or P. duboscqi ABI15936 (E–G) at 2 μM in Tris-buffered saline. The syringe contained 20 μM LTC4 (A,E), LTD4 (B,F) and LTE4 (C,G) in the same buffer. Injections (10 µL) were spaced at 300 s intervals. […] The syringe concentration was 50 µM AGE83092 and 100 µM for ABI15936. Heats were recorded on a VP-ITC MicroCalorimeter and data were fit using a single binding site model on the MicroCal software package (Origin 7) for calculation of thermodynamic parameters. Titration curves are representative of at least 3 measurements.
(§2) Proteins were diluted in 20 mM tris pH 7.4, 150 mM NaCl and degassed. […] These were sonicated for 10 minutes in a water bath sonicator and degassed before use. Biogenic amines were dissolved in the same buffer and degassed. Heats were measured with a MicroCal VP-ITC calorimeter (Malvern, United Kingdom) using 10 μl ligand injections over periods of 20 seconds with 300 seconds spacing the injections. The measured heats were integrated and fit to a single-site binding model using the MicroCal Origin software.

P. duboscqi ABI15936 = target: T2, P. duboscqi ABI15936 (Phlebotomus duboscqi, UniProt Q06KA2); assay: biochemical; assay type: binding; conditions: for affinities (1/Ka): range printed for both proteins (AGE83092 and ABI15936) together; for binding of biogenic amines: ITC (Fig. S1)
T2 construct: made in house; host or cells: E. coli BL21 (DE3) pLysS
Experimental: as §1
Figure 7 Binding pocket interactions in ABI15936. (A) Stereoview of bound Triton X-100 with weighted omit electron density (Fo-Fc) contoured at 3 σ covering the ligand. Carbon atoms are colored green and oxygen atoms are colored red (B). […] In the protein, carbon is colored light grey, oxygen is colored red and nitrogen is colored blue. […] The refined position is shown in green and the rotated position in white.
as §2

AeD7 = test system: AeD7; set-up: method as in PMID 19234127, PMID 21152418; conditions: cited from earlier work
AnStD7L1 = conditions: cited from earlier work
[2] = ITC, single binding site model, Tris-buffered saline, protein 2 μM (10 µM for U46619), protein prepared with Triton X-100
[3] = ITC, single binding site model, protein prepared with Triton X-100
[4] = ITC, protein prepared without Triton X-100

T1 sequence (M1JMQ7 20-254 limits assumed): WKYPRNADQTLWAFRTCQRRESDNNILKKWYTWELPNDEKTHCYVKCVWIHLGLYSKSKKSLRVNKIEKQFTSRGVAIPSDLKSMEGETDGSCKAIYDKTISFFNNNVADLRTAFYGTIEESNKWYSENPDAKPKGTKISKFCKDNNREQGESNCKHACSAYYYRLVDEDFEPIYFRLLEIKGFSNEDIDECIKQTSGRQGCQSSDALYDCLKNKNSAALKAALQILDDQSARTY
T2 sequence (Q06KA2 20-249 limits assumed): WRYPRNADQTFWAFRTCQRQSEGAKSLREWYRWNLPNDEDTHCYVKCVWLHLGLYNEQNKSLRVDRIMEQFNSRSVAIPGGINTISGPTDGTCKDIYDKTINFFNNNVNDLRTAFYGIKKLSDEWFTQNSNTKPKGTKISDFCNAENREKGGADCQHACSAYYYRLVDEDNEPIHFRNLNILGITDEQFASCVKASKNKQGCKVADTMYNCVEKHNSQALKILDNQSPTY

SMILES	Ka [1] [M⁻¹]	ΔH ([1]; ITC, single binding site model) [kcal/mol]	Ka (P. duboscqi ABI15936; [2]) [M⁻¹]	ΔH (P. duboscqi ABI15936; [3]) [kcal/mol]	affinities (1/Ka) (P. duboscqi ABI15936; ITC) [nM]	binding of biogenic amines (P. duboscqi ABI15936)	also measured
CCCCC/C=C\C\C=C/C=C/C=C/[C@@H](SC[C@H](NC(=O)CC[C@H](N)C(=O)O)C(=O)NCC(=O)O)[C@@H](O)CCCC(=O)O [LTC4]	1.7e+08	-10.3	3.1e+08	-8.6	2 to 6	–	affinities (1/Ka) [1]: 2 to 6 nM; Ka (P. duboscqi ABI15936; [4]): 2.2e+08 M⁻¹; ΔH (P. duboscqi ABI15936; [4]): -10.0 kcal/mol
CCCCC/C=C\C\C=C/C=C/C=C/[C@@H](SC[C@H](N)C(=O)NCC(=O)O)[C@@H](O)CCCC(=O)O [LTD4]	–	-10.2	–	-8.9	–	–	Kd ([1]; Ka): 1.75 nM; Kd ([1]; affinities (1/Ka)): 2 to 6 nM; Kd (P. duboscqi ABI15936; Ka): 4.17 nM; Kd (P. duboscqi ABI15936; affinities (1/Ka)): 2 to 6 nM
CCCCC/C=C\C\C=C/C=C/C=C/[C@@H](SC[C@H](N)C(=O)O)[C@@H](O)CCCC(=O)O [LTE4]	6.3e+07	-11.3	3.4e+07	-7.0	16 to 29	–	–
CCCCC[C@H](O)/C=C/[C@@H]1[C@@H](C/C=C\CCCC(=O)O)[C@H]2CO[C@@H]1C2 [U46619]	1.33e+06	–	780000	-11.5	–	–	ΔH [1]: -8.5 kcal/mol; Kd ([1]; read-out: affinity constant): ~750 nM; Kd (P. duboscqi ABI15936; ITC, read-out: affinity constant): ~1300 nM; affinity for AeD7 (AeD7): no affinity; binding to AnStD7L1 (AnStD7L1): bound
NCCc1c[nH]cn1 [histamine]	–	–	–	–	–	did not bind	binding of biogenic amines [1]: did not bind
NCCc1c[nH]c2ccc(O)cc12 [serotonin]	–	–	–	–	–	did not bind	binding of biogenic amines ([1]; ITC (Fig. S1)): did not bind
